Details of data set [1]: method as in doi:10.1016/j.jfoodeng.2010.04.001. Conditions: Water pH 7; cited from earlier work.
Data set [2] is described as follows: QRC release study, modified transwell support with 1-octanol acceptor. The data set is classed as physicochemical. Conditions: QRC release from BioQ-CPX, data up to 30 h. As for the experimental part:
QRC release studies were carried out using a modified transwell permeable support (0.45 µm) filled with 5 mg of the BioQ-CPX powder and soaked with 0.2 mL of citrate buffer pH 5.5. The entire system was dipped inside a beaker filled with 8 mL of 1-octanol as a suitable acceptor fluid. […] The experiments were carried out at 37 ± 0.5 °C under constant stirring and protected by light exposure while, immediately after sampling, opportune volumes of fresh acceptor fluid were added to maintain the sink conditions. Data are reported as means ± SE (n = 6). Drug release profiles were elaborated using OriginPro 8.5 software and fitted with semi-empirical model equations. Fittings were validated by using R^2 value where a p-value of less than 0.05 was considered statistically significant.

Data set [3] is described as follows: QRC and CPX solubility studies in aqueous media. The conditions noted are these: for solubility at 120 min: 37 °C, pH 5.5, aqueous with cosolvent or surfactant or cyclodextrin, thermodynamic from solid, 37 ± 0.5 °C. The data set is classed as physicochemical. Here is the method:
QRC, in excess, was added to each medium (1 mL) until precipitation occurred. […] The solubility tests were performed in triplicate. Results are reported as means ± SE.

A short description of data set [4]: Ex vivo permeation/penetration experiments in Franz-type cells. The conditions noted are these: from 30 mg BioQ-CPX. The data set is classed as in vitro ADME, pig. Here is the method: Tissue specimens were obtained from the vestibular area of the retromolar trigone derived from 6–8-month-old pigs supplied by the Municipal Slaughterhouse of Villabate (Palermo, Italy) since withdrawn from animals intended for human consumption. By a refrigerated transport box, the specimens were immediately transferred to the laboratory within 1 h from animal sacrifice and surgically treated to remove both adipose and connective tissues in excess. Afterward, they were dipped for 30 min in a 5% THR (w/v) isotonic solution and then stored at −80 °C for a minimum period of one week. Before the permeation/penetration experiments, tissue samples were accurately washed to remove the cryoprotectant, and, subsequently, thermal shocked to obtain the buccal mucosa. Briefly, tissue samples were dipped for 30 s in a pre-warmed (70 °C) isotonic solution, and then the mucosa was carefully peeled off from the connective tissue, obtaining the heat-separated epithelium along with the intact basal lamina. Finally, it was equilibrated in an isotonic solution for 3 h by replacing the medium every 15 min to remove all the biological matter, which could affect the analysis, before use.
The ex vivo permeation/penetration studies were carried out using vertical Franz-type diffusion cells. Briefly, appropriate sections of buccal mucosa were mounted between the donor and the acceptor chambers filled with 1 mL of citrate buffer pH 5.5 and 15 mL of citrate buffer pH 5.5 amended with acetic acid 0.1% (v/v), Acys 0.002% (w/v), and β-CD 3% (w/v). The whole system was equilibrated at 37 ± 0.5 °C for 30 min. Afterward, the medium was removed from the donor compartment, promptly replaced with 30 mg of BioQ-CPX, and soaked with 0.2 mL of citrate buffer pH 5.5. Every 30 min, aliquots (0.5 mL) were withdrawn from the acceptor chamber and immediately replaced with the same volume of fresh acceptor fluid to maintain the sink conditions. Experiments were carried out at 37 ± 0.5 °C in the dark and under constant stirring, being stopped at different time points ranging from 1 to 6 h. The amount of permeated QRC and CPX were quantified by UV–Vis analysis. Data are reported as means ± SE (n = 6).
Briefly, the mucosa was dipped into 2 mL of methanol and warmed up to 60 °C. The extraction procedure was performed twice, and the collected extraction liquors were transferred into a 10 mL flask and brought to volume with fresh methanol. Thus, QRC and CPX amounts were determined by UV–Vis analysis. Results are reported as means ± SE.

Data set [5] can be described thus: QRC stability assay in aqueous environments (UV-Vis absorbance at 360 nm). Conditions: for decrease of absorbance ratio at 360 nm: QRC 0.01 mg/mL, room temperature, after 6 h. The data set is classed as physicochemical. Here is the method:
QRC degradation rate was investigated in: (i) PBS pH 7.4 containing 10% v/v of DMSO (solvent A) and (ii) citrate buffer pH 5.5 solution amended with either 10% v/v of DMSO (solvent B) or 10% v/v of DMSO and 0.002% w/v of ACys (solvent C). The prepared QRC aqueous solutions (0.01 mg/mL) were kept at room temperature for 6 h in quartz cuvette located in the UV–Vis spectrophotometer (Shimadzu 1700 instrument, Kyoto, Japan). At scheduled time intervals (10 min), QRC spectra were recorded (from 200 to 700 nm) to highlight any changes in terms of sharp and absorption peaks. Results were reported as absorbance variation at lambda max (360 nm) over time according to the following equation: Abs variation %=Abstn/Abst0×100 where Abst0 and Abstn are the QRC absorbance recorded initially and at each time point, respectively. The stability assays were performed in triplicate. Results are reported as means ± SE.

A short description of the next data set: DPPH antioxidant assay. Conditions: 0.08-0.01 mg/mL. The data set is classed as biochemical. As for the experimental part: To evaluate the antioxidant activity of BioQ-CPX, the 2,2-diphenyl-1-picrylhydrazyl (DPPH) assay was performed. […] A measure of 0.5 mL of nanocomposite solution was transferred in polystyrene cuvette, added to 2.5 mL of DPPH ethanol solution (0.0295 mg/mL), and preserved by light exposure using foil. At determined time intervals (0, 0.25, 1, and 2 h), the DPPH concentration was measured spectrophotometrically at room temperature by observing the spectral range 400-800 nm and selecting λmax = 515 nm for quantification. The DPPH calibration curve was constructed analyzing DPPH ethanol solutions in the concentration range of 0.039-0.0156 mg/mL (λmax = 515 nm, regression equation: […] Results are expressed as means ± SE.
(Loss of DPPH colour is used to gauge radical scavenging.)

For data set [6] the following is noted: cited from earlier work.

One may read the solubility as the dissolved amount per volume that the medium holds. By logP is commonly meant a log measure of how a compound divides between an organic and an aqueous phase.

“And” between values parts separate entries of the source, which are not always exact repeats. Equal values may be shown once.

On to `O=c1c(O)c(-c2ccc(O)c(O)c2)oc2cc(O)cc(O)c12` [QRC, quercetin], for which the Solubility in data set [1] is 0.002 [52] mg/mL. For the same compound, in data set [2], the Korsmeyer-Peppas n was 0.7915; the “Korsmeyer-Peppas with Tlag n” value was 0.6509 ± 0.0127 and 0.6509. Also, in data set [2] (time in hours), the First-Order k came to 0.05179, the Korsmeyer-Peppas k is reported as 0.0578, the “Korsmeyer-Peppas with Tlag k” value amounted to 0.0947 and the “Korsmeyer-Peppas with Tlag: Tlag” value is listed as 1.440. Further, the Zero-Order k in data set [2] (time in hours) is 0.02997. For the same compound, the solubility at 120 min in data set [3] (Citrate buffer pH 5.5/ACys plus DMSO 10% v/v) turned out to be 29 µg/mL. Moreover, the solubility at 120 min in data set [3] (Citrate buffer pH 5.5/ACys plus β-CD 2% w/v) turned out to be 83 µg/mL. In data set [3] (Citrate buffer pH 5.5/ACys plus β-CD 3% w/v), the solubility at 120 min is 103 µg/mL. In addition, in data set [3] (in presence of β-CD 2%), the “solubility enhancement compared to water solubility” value is listed as 42 fold. For the same compound, in data set [4] (after 5 h), the “maximum amount accumulated into the mucosa” value is on record as “about 5 % of drugs dose”. Also, in data set [4] (first hour from application), the “amount accumulated into the mucosa” value is on record as “about 4 % of dose”. In addition, the “decrease of absorbance ratio at 360 nm” value in data set [5] (PBS pH 7.4 + 10% v/v DMSO) is 42%. In addition, the “QRC stability over time” value in data set [5] (citrate buffer pH 5.5 + 10% v/v DMSO + 0.002% w/v ACys) was “improved”. Further, the “decrease of absorbance ratio at 360 nm” value in data set [5] (citrate buffer pH 5.5 + 10% v/v DMSO) was 25%. Also, the “%RCD compared with BioQ-CPX samples” value in “DPPH antioxidant assay” (corresponding to QRC content of the nanocomposite samples, after 1 and 2 h) was “same values of %RCD and trends”. In the data set “DPPH antioxidant assay” (within 15 min incubation), the “scavenging activity compared with BioQ-CPX samples” value is listed as “lower”. For the same compound, the lipophilicity (logP) in data set [6] was 1.50.

The record behind these values is paper PMC8706998, “Lipid Nanocarriers-Loaded Nanocomposite as a Suitable Platform to Release Antibacterial and Antioxidant Agents for Immediate Dental Implant Placement Restorative Treatment” (Pharmaceutics, 2021).
